Experimental data published in publication PMC9609004, “Computational Design, Synthesis, and Pharmacological Evaluation of Naproxen-Guaiacol Chimera for Gastro-Sparing Anti-Inflammatory Response by Selective COX2 Inhibition” (Molecules, 2022).
“And” between values parts separate entries of the source, which are not always exact repeats. Equal entries are not always repeated. “Also recorded” adds a separate entry of the source. Where two headings read alike, the source gives them in different places. Blank lines part the entries; values can stand above or below the compound they belong to.

Legend:
[1] = target: T1, COX1 (Ovis aries, UniProt P05979); test: Cyclooxygenase (COX1) inhibitory assay, ovine/human COX inhibitor assay kit; type: biochemical; conditions: n = 3, mean ± SD
T1 construct: purchased
T1 sequence (P05979 25-600): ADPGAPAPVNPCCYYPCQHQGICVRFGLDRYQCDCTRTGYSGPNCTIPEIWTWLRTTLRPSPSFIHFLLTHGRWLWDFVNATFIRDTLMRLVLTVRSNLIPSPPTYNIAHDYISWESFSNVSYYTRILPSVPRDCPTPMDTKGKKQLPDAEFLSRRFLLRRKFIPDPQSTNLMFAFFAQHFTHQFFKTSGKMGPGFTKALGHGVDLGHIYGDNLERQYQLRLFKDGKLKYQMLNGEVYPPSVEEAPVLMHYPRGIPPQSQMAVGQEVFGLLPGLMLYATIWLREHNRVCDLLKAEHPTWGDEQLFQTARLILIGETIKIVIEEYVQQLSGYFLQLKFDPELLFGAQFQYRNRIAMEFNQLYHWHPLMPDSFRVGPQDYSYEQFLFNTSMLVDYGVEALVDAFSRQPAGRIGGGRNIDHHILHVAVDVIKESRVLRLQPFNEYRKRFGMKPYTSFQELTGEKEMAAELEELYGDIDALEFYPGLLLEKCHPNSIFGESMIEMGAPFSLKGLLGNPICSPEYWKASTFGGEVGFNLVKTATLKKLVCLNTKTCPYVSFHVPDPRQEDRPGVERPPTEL
Procedure: (§1) After that, 10 µL of arachidonic acid (100 µM), after 2 min of 1 M HCl of 50 µL and Ellman’s reagent, was added. The absorbance at 410 nm was measured spectrophotometrically against the blank. The selectivity index was calculated as follows:SI = IC50 COX1/IC50 COX2

[2] = target: T2, COX2 (Homo sapiens, UniProt P35354); test: Cyclooxygenase (COX2) inhibitory assay, ovine/human COX inhibitor assay kit; type: biochemical
T2 construct: purchased
T2 sequence (P35354 18-604): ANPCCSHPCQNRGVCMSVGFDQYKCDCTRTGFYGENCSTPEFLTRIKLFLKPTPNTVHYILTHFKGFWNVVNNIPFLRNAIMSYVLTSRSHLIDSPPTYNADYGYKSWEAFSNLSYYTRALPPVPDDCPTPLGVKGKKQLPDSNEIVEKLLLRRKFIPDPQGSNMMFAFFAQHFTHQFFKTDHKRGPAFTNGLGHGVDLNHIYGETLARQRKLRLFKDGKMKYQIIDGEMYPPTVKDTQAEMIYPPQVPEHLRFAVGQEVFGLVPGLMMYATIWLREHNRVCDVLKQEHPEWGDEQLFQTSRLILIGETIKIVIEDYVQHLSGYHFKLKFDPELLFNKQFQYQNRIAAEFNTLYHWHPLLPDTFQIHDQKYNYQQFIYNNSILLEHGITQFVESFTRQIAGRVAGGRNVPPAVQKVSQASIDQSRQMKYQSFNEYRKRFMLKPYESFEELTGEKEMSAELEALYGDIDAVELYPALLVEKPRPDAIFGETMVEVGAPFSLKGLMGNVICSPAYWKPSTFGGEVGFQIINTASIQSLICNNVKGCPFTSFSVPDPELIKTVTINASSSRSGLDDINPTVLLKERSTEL
Procedure: as §1

[3] = target: T3, human recombinant 5-LOX (Homo sapiens, UniProt P09917); test: 5-Lipoxygenase inhibitory assay (5-LOX assay kit); type: biochemical
T3 construct: purchased
T3 sequence (P09917 1-674): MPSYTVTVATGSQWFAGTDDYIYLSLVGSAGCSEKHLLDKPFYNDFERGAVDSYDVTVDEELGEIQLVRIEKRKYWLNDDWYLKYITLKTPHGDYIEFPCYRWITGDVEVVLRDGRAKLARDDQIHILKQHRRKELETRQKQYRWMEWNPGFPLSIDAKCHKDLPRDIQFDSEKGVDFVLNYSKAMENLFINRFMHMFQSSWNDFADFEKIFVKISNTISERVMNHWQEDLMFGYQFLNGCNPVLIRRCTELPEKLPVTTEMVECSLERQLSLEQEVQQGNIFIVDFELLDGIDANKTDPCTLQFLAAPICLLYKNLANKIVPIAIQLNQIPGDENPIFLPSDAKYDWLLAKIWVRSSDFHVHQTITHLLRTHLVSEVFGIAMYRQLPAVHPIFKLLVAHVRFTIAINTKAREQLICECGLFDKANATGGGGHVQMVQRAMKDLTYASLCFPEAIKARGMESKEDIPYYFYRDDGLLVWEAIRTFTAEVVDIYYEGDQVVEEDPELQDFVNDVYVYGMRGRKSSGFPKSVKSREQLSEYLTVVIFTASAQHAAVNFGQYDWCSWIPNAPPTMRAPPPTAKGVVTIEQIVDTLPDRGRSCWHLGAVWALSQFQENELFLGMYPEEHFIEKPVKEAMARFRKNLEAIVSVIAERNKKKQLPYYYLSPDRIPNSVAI
Procedure: The MAS 1696 was tested against human recombinant 5-LOX using a 5-LOX assay kit. Briefly, 5-LOX solution (90 µL) was added with various MAS-1696 concentrations. The arachidonic acid (10 µL) was further added and the absorbance was measured at 490 nm against the blank.

[4] = tested on: carrageenan-induced paw edema; test: Rat paw edema test induced by carrageenan; type: in vivo, Wistar rats; conditions: carrageenan 1% w/v, 2 h and 4 h, S-naproxen 15 mg/kg p.o., 4-allyl guaiacol 15.46 mg/kg, n = 6
Procedure: In vivo studies were performed as per the guidelines issued by the WHO, Geneva. The protocol was approved by the IAEC for animal handling. The Wistar rats (male; 225–250 g) and ICR mice (20–25 g) were procured from the Animal House facility of Panjab University Chandigarh. The anti-inflammatory activity of MAS-1696 was determined by injecting carrageenan in rat paws as published by us previously. The different groups of rats with six animals in each group were administered the drug. The fresh solution of carrageenan (Type IV, 0.1 mL, 1%) was used to induce acute edema by injecting it under the plantar aspect of the left hind paw. One […] (0.9%) of saline was administered to the right paw (control group). A plethysmometer was used to measure the change in the paw volume between two and four hours after the carrageenan challenge.

[5] = tested on: stomach (gastric ulcers); test: Determination of ulcer index (gastric damage); type: in vivo, rats; conditions: S-naproxen 120 mg/kg p.o., equimolar doses of MAS-1696 or physical mixture; 4 h after treatment; n = 6
Procedure: The fasting rats were separated into four groups (n = 6). […] After 4 h of treatment, animals were sacrificed and the stomach was separated. This removed stomach was opened along the greater curvature and cleaned using saline to check for ulcers. The ulcers were graded as: 0—Normal texture stomach 0.5—Red coloration 1.0—Spot of ulcers 1.5—Hemorrhagic streaks 2.0—Ulcers up to 3 3.0—Ulcers above 3

[6] = Partition/distribution coefficient (log P), shake flask method with HPLC; type: physicochemical; conditions: 1-octanol–0.05 M phosphate buffer pH 7.4, 25 °C, n = 2
Procedure: (§2) The chromatographic purity of the compound MAS-1696, partition coefficient, chemical stability, and metabolic stability were assessed using RP-HPLC. An isocratic elution system of acetonitrile-methanol-water-acetic acid (70:18:12:0.01) was used. An injection volume of 10 µL and flow rate of 1 mL/min with a relative standard deviation of 0.5% reproducibility was maintained.
The aqueous phase and 1-octanol were stirred overnight. The MAS-1696 in 1-octanol (2 mL) and phosphate buffer (5 mL) was stirred at 25 °C in a water bath shaker for 8 h. Both layers were separated and filtered through Millipore’s 0.22 µm nylon membrane filter. The 1-octanol layer was diluted appropriately before being injected into the HPLC. The log P was determined by using the following equation:log Poct/wat = log ([solute]octanol)/([solute]unionized water)

[7] = Aqueous solubility in buffer pH 7.4 (HPLC); type: physicochemical; conditions: aqueous buffer of pH 7.4, HPLC
[8] = In vitro stability in simulated gastric fluid (HCl buffer pH 2); type: physicochemical; conditions: for % MAS-1696 Left in the Simulated Gastric Fluid of pH 2: 37 °C
Procedure: as §2
The HCl buffer (pH 2) at 37 °C was used to evaluate the chemical stability of MAS-1696. To a 400 µL solution of MAS-1696 (10 mg/mL in chloroform), 3.6 mL of HCl buffer (pH 2) was added and kept on a shaker plate at 37 °C. Aliquots (400 µL) collected at different time points were mixed with 1600 µL of acetonitrile. After centrifugation, the supernatant was subjected to HPLC analysis. The remaining percentage of MAS-1696 was determined using the formula:% remaining = (peak area at the respective time (min)/peak area at 0 min) × 100

[9] = In vitro human plasma stability; type: in vitro ADME; conditions: for % MAS-1696 Left in Human Plasma: 37 °C
Procedure: as §2
To a 50 µL solution of MAS-1696 (10 mg/mL in chloroform), 900 µL of human plasma was added and kept on a shaker plate at 37 °C. Aliquots (100 µL) were collected at different intervals and mixed with 900 µL of acetonitrile for precipitation of proteins. After centrifugation, the supernatant was subjected to HPLC analysis. The remaining percentage of the conjugate was calculated using the formula:% remaining = (peak area at the respective time (min)/peak area at 0 min) × 100.

IC50 [1]: 8.5 µM
Selectivity Index ([2]; SI = IC50 COX1/IC50 COX2): 1.1
IC50 ([2]; n = 3, mean ± SD, read-out: IC50 COX2 (converted)): 7.76 µM
Rise in selectivity for COX2 over COX1 (COX selectivity index) compared to naproxen ([2]; vs parent compound naproxen): 23%
IC50 ([3]; n = 3, mean ± SD, read-out: IC50 5-LOX (converted)): 28.5 µM
logP at 8 h [6]: 4.7 ± 0.26
Solubility (pH 7.4) [7]: BDL
% MAS-1696 Left in the Simulated Gastric Fluid of pH 2 ([8]; 0 h): 100%
% MAS-1696 Left in the Simulated Gastric Fluid of pH 2 ([8]; 2 h): 96.16%
% MAS-1696 Left in the Simulated Gastric Fluid of pH 2 ([8]; 5 h): 90.72%
% MAS-1696 Left in the Simulated Gastric Fluid of pH 2 ([8]; 8 h): 83.30%
% MAS-1696 Left in the Simulated Gastric Fluid of pH 2 ([8]; 12 h): 77% and 77.03%
% of MAS-1696 hydrolyzed in simulated gastric fluid ([8]; pH 2, 0 h): 0%
% of MAS-1696 hydrolyzed in simulated gastric fluid ([8]; pH 2, 2 h): 3.84%
% of MAS-1696 hydrolyzed in simulated gastric fluid ([8]; pH 2, 5 h): 9.28%
% of MAS-1696 hydrolyzed in simulated gastric fluid ([8]; pH 2, 8 h): 16.7%
% of MAS-1696 hydrolyzed in simulated gastric fluid ([8]; pH 2, 12 h): 22.97%
% MAS-1696 Left in Human Plasma ([9]; 0 min): 100%
% MAS-1696 Left in Human Plasma ([9]; 30 min): 0%
% MAS-1696 Left in Human Plasma ([9]; 60 min): 0%
melting point: 99 to 100 °C
SMILES: C=CCc1ccc(OC(=O)[C@@H](C)c2ccc3cc(OC)ccc3c2)c(OC)c1 [MAS-1696, (S)-4-Allyl-2-methoxyphenyl 2-(2-methoxynaphthalen-6-yl)propanoate]
Anti-inflammatory effect (edema, paw volume) [4]: anti-inflammatory potency comparable or even superior to S-naproxen
Anti-inflammatory effect (edema, paw volume) ([4]; listed as MAS1696): better anti-inflammatory effect when compared with S-naproxen
Ulcer score / gastric damage [5]: considerably less damage; also recorded: significantly less stomach damage
Hydrolysis in human plasma (in words) ([9]; 80% human plasma, 0, 30 and 60 min): completely hydrolyzed within half an hour; also recorded: readily hydrolyzed

SMILES: COc1ccc2cc([C@H](C)C(=O)O)ccc2c1 [Naproxen, S-naproxen]
IC50 [2]: 20.1 µM
IC50 [3]: 36.5 µM
Anti-inflammatory effect (edema, paw volume) [4]: significant decrease in the edema and paw volume
Ulcer score / gastric damage [5]: substantial rise in ulcer score compared with the control
